“And” between values parts separate entries of the source, which are not always exact repeats. Equal values may be shown once. Read-outs that look alike come from different tables or passages of the source. Each block holds one molecule with its values, some of them ahead of it.
What was measured:
[1] = system: RT112; experiment: Inhibition of cell proliferation, RT112 human bladder cancer cells (CyQuant); format: cell-based; conditions: read-out: Bladder Cancer Cell Lines IC50 (μM) RT112
Procedure: (§1) After an additional 96-h culture, the medium was removed and the plates frozen at −80° C. Cell proliferation was evaluated using CyQuant cell proliferation assay kit from Molecular Probes (Eugene, Oreg.).

[2] = system: RT4; experiment: Inhibition of cell proliferation, RT4 human bladder cancer cells (CyQuant); format: cell-based; conditions: read-out: Bladder Cancer Cell Lines IC50 (μM) RT4
Procedure: as §1

[3] = system: T24; experiment: Inhibition of cell proliferation, T24 human bladder cancer cells (CyQuant); format: cell-based; conditions: read-out: Bladder Cancer Cell Lines IC50 (μM) T24
Procedure: as §1

[4] = Stability/compatibility of epirubicin and calcitriol solution for intravesical instillation (HPLC-UV); format: physicochemical
Procedure: Approximately 12 mg of freeze-dried Farimorubicina® powder (approx. 2 mg of epirubicin) were dissolved in water to produce a concentrated stock solution. After vortexing, the concentrated stock was diluted 1:2 using a isotonic saline containing Tween 20 at 0.1% (w/v) to provide Sample B. After further vortexing, Sample B was stored at 4° C. until use. […] The solution was mixed and stored at −20° C. until use. 100 μl of the concentrated stock solution was then taken and diluted with 900 μl of isotonic saline containing Tween 20 0.1% (w/v). After shaking the sample was stored at 4° C. until use. […] Following mixing by vortexing, the sample was stored at 5° C. and analysed using HPLC chromatography after preparation (t=0) and after 2.5 hr (t=150 min). [table]

[5] = system: 24-hydroxylase (CYP24); experiment: Expression of 24-hydroxylase (CYP24) in human bladder cancer cell lines, Real Time RT-PCR; format: cell-based; conditions: 100 nM, 2 h
[6] = system: human bladder cancer cell lines; experiment: Combination of calcitriol with chemotherapeutic agents, bladder cancer cell line proliferation, combination index method; format: cell-based; conditions: agent combined with calcitriol; combination index method (CalcuSyn)
Procedure: Proliferation was measured after an additional 96 h using CyQuant cell proliferation assay kit. Drug interactions (as shown in FIG. 1) were evaluated by the median-effect/isobologram method using CalcuSyn software (Biosoft, Cambridge, UK). Combination Indices (CI) were calculated using the non-constant ratio combination design, determining synergism or antagonism for each data point.

[7] = Homo sapiens, RT-112, 96 h, 96-h culture
[8] = Homo sapiens, RT-4, 96 h, 96-h culture
[9] = Homo sapiens, T-24, 96-h culture
[10] = combination (calcitriol 50 μg/ml + epirubicin 1 mg/ml), t = 0 min
[11] = combination (calcitriol 50 μg/ml + epirubicin 1 mg/ml), t = 150 min, stored at 5° C.
[12] = single-component solution (epirubicin 1 mg/ml; calcitriol 100 μg/ml), HPLC peak area

- IC50 [1, 7]: 9 µM
- IC50 [2, 8]: 10 µM
- IC50 [3, 9]: 52.1 µM
Molecule: C=C1/C(=C\C=C2/CCC[C@@]3(C)C2CCC3C2(CCCC(C)(C)O)CC2)CC(OC(C)=O)C[C@@H]1OC(C)=O (stereo partly drawn) [1,3-Di-O-acetyl-1,25-dihydroxy-20-cyclopropyl-cholecalciferol]

- IC50 [1, 7]: 6 µM
- IC50 [2, 8]: 17 µM
- IC50 [3, 9]: 31 µM
Molecule: CC(=O)O[C@@H]1CC(=C/C=C2\CCC[C@]3(C)C([C@H](C)CCC(=O)C(C)(C)O)=CCC23)C[C@@H](OC(C)=O)C1 (stereo partly drawn) [1,3-O-Diacetyl-1,25-Dihydroxy-16-ene-24-Keto-19-nor-Cholecalciferol]

- IC50 [1, 7]: 13.8 µM
- IC50 [2, 8]: 1.7 µM
Molecule: C=C1/C(=C\C=C2/CCC[C@]3(C)C(C4(CC#CC(O)(C(F)(F)F)C(F)(F)F)CC4)=CCC23)CC(O)C[C@@H]1O (stereo partly drawn) [1,25-Dihydroxy-16-ene-20-cyclopropyl-23,24-yne-26,27 hexafluoro-cholecalciferol]

- IC50 [1, 7]: 1 µM
- IC50 [2, 8]: 62 µM
- IC50 [3, 9]: 69.4 µM
Molecule: C=C1/C(=C\C=C2/CCC[C@@]3(C)C2CCC3[C@@H](CCCC(C)(C)O)CCC(O)C(C)(C)O)C[C@@H](O)C[C@@H]1O (stereo partly drawn) [1,25-Dihydroxy-21(2R,3-dihydroxy-3-methyl-butyl)-20S-Cholecalciferol]

- IC50 [1, 7]: 25 µM
- IC50 [2, 8]: 71 µM
- IC50 [3, 9]: 57.9 µM
Molecule: C=C1/C(=C\C=C2/CCC[C@@]3(C)C2CCC3C(CCCC(C)(C)O)CCC(O)C(C)(C)O)C[C@@H](O)C[C@@H]1O (stereo partly drawn) [1,25-Dihydroxy-21-(2R,3-dihydroxy-3-methyl-butyl)-20R-Cholecalciferol]

- IC50 [1, 7]: 25.5 µM
- IC50 [2, 8]: 8.3 µM
Molecule: C=C1/C(=C\C=C2/CCC[C@]3(C)[C@@H]([C@@H](CCCC(C)(C)O)CCC(=O)C(C)(C)O)CC[C@@H]23)C[C@@H](O)C[C@@H]1O [1,25-dihydroxy-20S-21(3-hydroxy-3-methyl-butyl)-24-keto-cholecalciferol]

- IC50 [1, 7]: 12 µM
- IC50 [2, 8]: 16 µM
- IC50 [3, 9]: 28 µM
Molecule: C=C1/C(=C\C=C2/CCC[C@]3(C)C([C@@H](C)C/C=C/C(O)(CC)CC)=CC[C@@H]23)C[C@@H](O)C[C@@H]1F [1-alpha-fluoro-25-hydroxy-16,23E-diene-26,27-bishomo-20-epi-cholecalciferol]

- IC50 [1, 7]: > 30 µM
- IC50 [2, 8]: 9.9 µM
Molecule: CC(C)(O)CCCC1(C2=CCC3/C(=C/C=C4/CC(O)C[C@H](O)C4)CCC[C@]23C)CC1 (stereo partly drawn) [1α,25-Dihydroxy-16-ene-20-cyclopropyl-19-nor-cholecalciferol]

- IC50 [1, 7]: 10.6 µM
- IC50 [2, 8]: 2.3 µM
Molecule: C=C1/C(=C\C=C2/CCC[C@]3(C)C(C4(C/C=C/C(O)(C(F)(F)F)C(F)(F)F)CC4)=CCC23)CC(O)C[C@@H]1O (stereo partly drawn) [1α,25-Dihydroxy-16-ene-20-cyclopropyl-23,24-E-ene-26,27-hexafluoro cholecalciferol]

- IC50 [1, 7]: 15.5 µM
- IC50 [2, 8]: 3.3 µM
Molecule: C=C1/C(=C\C=C2/CCC[C@]3(C)C(C4(C/C=C\C(O)(C(F)(F)F)C(F)(F)F)CC4)=CCC23)CC(O)C[C@@H]1O (stereo partly drawn) [1α,25-Dihydroxy-16-ene-20-cyclopropyl-23,24-Z-ene-26,27-hexafluoro-cholecalciferol]

- IC50 [1, 7]: 9.6 µM
- IC50 [2, 8]: 2.2 µM
Molecule: C[C@]12CCC/C(=C\C=C3\CC(O)C[C@H](O)C3)C1CC=C2C1(C/C=C\C(O)(C(F)(F)F)C(F)(F)F)CC1 (stereo partly drawn) [1α,25-Dihydroxy-16-ene-20-cyclopropyl-23,24-f-ene-2627-hexafluoro-19-nor-cholecalciferol]

- IC50 [1, 7]: 27.6 µM
- IC50 [2, 8]: 2 µM
Molecule: C=C1/C(=C\C=C2/CCC[C@]3(C)C(C4(CCCC(C)(C)O)CC4)=CCC23)CC(O)C[C@@H]1O (stereo partly drawn) [1α,25-Dihydroxy-16-ene-20-cyclopropyl-cholecalciferol]

- IC50 [1, 7]: 14.5 µM
- IC50 [2, 8]: 4.6 µM
Molecule: C[C@]12CCC/C(=C\C=C3\CC(O)C[C@H](O)C3)C1CC=C2C1(C/C=C/C(O)(C(F)(F)F)C(F)(F)F)CC1 (stereo partly drawn) [1α,25-hydroxy-16-ene-20-cyclopropyl-23,24-E-ene-26,27-hexafluoro-19-nor-cholecalciferol]

- IC50 [1, 7]: 22.7 µM
- IC50 [2, 8]: 5.2 µM
Molecule: C[C@]12CCC/C(=C\C=C3\CC(O)C[C@H](O)C3)C1CC=C2C1(CC#CC(O)(C(F)(F)F)C(F)(F)F)CC1 (stereo partly drawn) [14215-Dihydroxy-16-ene-20-cyclopropyl-23,41-yne-26,27-hexafluoro-19-nor-cholecalciferol]

Continued, molecule first:

Molecule: 1,25-Dihydroxy-21-16,23Z-diene-26,27-hexafluoro-19-nor-cholecalciferol
- IC50 ([1]; 96-h culture): 24 µM
- IC50 ([2]; 96-h culture): 20 µM
- IC50 ([3]; 96-h culture): 58.7 µM

Molecule: CC(C)(O)CCC[C@@H](CC[C@@H](O)C(C)(C)O)[C@H]1CC[C@H]2/C(=C/C=C3C[C@@H](O)C[C@H](O)C3)CCC[C@]12C [1,25-Dihydroxy-21-(2R,3-dihydroxy-3-methyl-butyl)-20S-19-nor-cholecalciferol]
- IC50 ([1]; Homo sapiens, RT-112, 96-h culture): 44 µM
- IC50 ([2]; Homo sapiens, RT-4, 96-h culture): 72 µM
- IC50 [3, 9]: 99.2 µM

Molecule: C=C1/C(=C\C=C2/CCC[C@]3(C)C([C@H](C)CCCC(C)(C)O)CC[C@@H]23)C[C@@H](O)C[C@@H]1O (stereo partly drawn) [1,25-Dihydroxycholecalciferol]
- IC50 ([1]; 96-h culture): 28.7 µM
- IC50 [1, 7]: 19 µM
- Area (230 nm) [4, 10]: 2068192 and 1960823
- Area (254 nm) [4, 10]: 2710511 and 2589663
- Area (230 nm) [4, 11]: 2027619 and 1954501
- Area (254 nm) [4, 11]: 2674857 and 2572268
- Area (230 nm) [4, 12]: 3402919 and 3485146
- Area (254 nm) [4, 12]: 4981173 and 5116113
- IC50 ([2]; 96-h culture): 26 µM
- IC50 [2, 8]: 45 µM
- Expression of 24-hydroxylase (CYP24) [5]: up-regulation of CYP24

Molecule: CC(C)(O)CCC[C@@H](CCC(=O)C(C)(C)O)[C@H]1CC[C@H]2/C(=C/C=C3C[C@@H](O)C[C@H](O)C3)CCC[C@]12C [1,25-dihydroxy-20S-21(3-hydroxy-3-methyl-butyl)-24-keto-19-nor-cholecalciferol]
- IC50 [1, 7]: > 30 µM
- IC50 [2, 8]: 2.6 µM

Molecule: C=C1/C(=C\C=C2/CCC[C@]3(C)C(C4(C/C=C/C(O)(C(F)(F)F)C(F)(F)F)CC4)=CCC23)CC(O)C[C@@H]1F (stereo partly drawn) [1α-Fluoro-25-hydroxy-16,23E-diene-20-cyclopropyl-26,27-hexafluoro-cholecalciferol]
- IC50 ([1]; 96-h culture): 17 µM
- IC50 ([2]; 96-h culture): 3.6 µM

Molecule: C=C1/C(=C\C=C2/CCC[C@]3(C)C(C4(C/C=C\C(O)(C(F)(F)F)C(F)(F)F)CC4)=CCC23)CC(O)C[C@@H]1F (stereo partly drawn) [1α-Fluoro-25-hydroxy-16,23Z-diene-20-cyclopropyl-26,27-hexafluoro-cholecalciferol]
- IC50 ([1]; 96-h culture): 21 µM
- IC50 ([2]; 96-h culture): 3.1 µM

Molecule: C=C1/C(=C\C=C2/CCC[C@]3(C)C(C4(CC#CC(O)(C(F)(F)F)C(F)(F)F)CC4)=CCC23)CC(O)C[C@@H]1F (stereo partly drawn) [1α-Fluoro-25-hydroxy-16-ene-20-cyclopropyl-23-yne-26,27-hexafluoro-cholecalciferol]
- IC50 ([1]; 96-h culture): 16.9 µM
- IC50 ([2]; 96-h culture): 3.6 µM

Molecule: N.N.O=C([O-])C1(C(=O)[O-])CCC1.[Pt+2] [carboplatin]
- Synergism or antagonism on bladder cancer cell proliferation in combination with calcitriol [6]: does not result in any additive or synergistic effect

Molecule: N.N.[Cl][Pt][Cl] [cisplatin]
- Synergism or antagonism on bladder cancer cell proliferation in combination with calcitriol [6]: does not result in any additive or synergistic effect

Molecule: COc1cccc2c1C(=O)c1c(O)c3c(c(O)c1C2=O)C[C@@](O)(C(=O)CO)C[C@@H]3O[C@H]1C[C@H](N)[C@H](O)[C@H](C)O1 [doxorubicin]
- Synergism or antagonism on bladder cancer cell proliferation in combination with calcitriol [6]: strong synergistic effect

Molecule: COc1cccc2c1C(=O)c1c(O)c3c(c(O)c1C2=O)C[C@@](O)(C(=O)CO)C[C@@H]3O[C@H]1C[C@H](N)[C@@H](O)[C@H](C)O1 [epirubicin]
- Synergism or antagonism on bladder cancer cell proliferation in combination with calcitriol [6]: strong synergistic effect
- Area (230 nm) [4, 10]: 53425733 and 53877070
- Area (254 nm) [4, 10]: 44443024 and 44731107
- Area (230 nm) [4, 11]: 52245312 and 50817806
- Area (254 nm) [4, 11]: 43984488 and 43221785
- Area (230 nm) [4, 12]: 30443828 and 30511286 and 30555666
- Area (254 nm) [4, 12]: 23243121 and 23243599 and 23383366

Molecule: Nc1ccn([C@@H]2O[C@H](CO)[C@@H](O)C2(F)F)c(=O)n1 [gemcitabine]
- Synergism or antagonism on bladder cancer cell proliferation in combination with calcitriol [6]: strong antagonistic effect

Source: patent US20080293647A1, “Combined Use Of Vitamin D Derivatives And Anti-Proliferative Agents For Treating Bladder Cancer” (priority 2004, published 2008)
